# Reference: US20220177508A1, “C10-Cyclic Substituted 13-Membered Macrolides and Uses Thereof” (Zikani Therapeutics, Inc., priority 2018, published 2022)
# Assays:
# Assay type in all cases: cell-based
# S. aureus MP-12 = assay: Broth dilution MIC determination (CLSI), S. aureus MP-12; conditions: Staphylococcus aureus, MP12; strain MP-12, broth dilution
# E. coli MP-4 = assay: Broth dilution MIC determination (CLSI), E. coli MP-4; conditions: Escherichia coli, MP4; strain MP-4, broth dilution; read-out: MIC E. coli MP-4
# K. pneumoniae MP-546 = assay: Broth dilution MIC determination (CLSI), K. pneumoniae MP-546; conditions: Klebsiella pneumoniae, MP546; strain MP-546, broth dilution
# K. pneumoniae MP-648 = assay: Broth dilution MIC determination (CLSI), K. pneumoniae MP-648; conditions: Klebsiella pneumoniae, MP648; strain MP-648, broth dilution
# P. aeruginosa MP-3 = assay: Broth dilution MIC determination (CLSI), P. aeruginosa MP-3; conditions: Pseudomonas aeruginosa, MP3; strain MP-3, broth dilution
# A. baumannii MP-15 = assay: Broth dilution MIC determination (CLSI), A. baumannii MP-15; conditions: Acinetobacter baumannii, MP15; strain MP-15, broth dilution; read-out: MIC A. baumanii MP-15
Compound,MIC (S. aureus MP-12),MIC (E. coli MP-4),MIC (K. pneumoniae MP-546),MIC (K. pneumoniae MP-648),MIC (P. aeruginosa MP-3),MIC (A. baumannii MP-15)
"CO[C@]1(C)C[C@@H](C)CN(C)[C@H](C2CN(C(=O)CC(C)(C)CN(C)C)C2)COC(=O)C(C)(C)C(=O)[C@H](C)[C@H]1O[C@@H]1O[C@H](C)C[C@H](N(C)C)[C@H]1O [Compound 183, (3R,6R,8R,9R,10R)-3-(1-(4-(dimethylamino)-3,3-dimethylbutanoyl)azetidin-3-yl)-9-(((2S,3R,4S,6R)-4-(dimethylamino)-3-hydroxy-6-methyltetrahydro-2H-pyran-2-yl)oxy)-8-methoxy-4,6,8,10,12,12-hexamethyl-1-oxa-4-azacyclotridecane-11,13-dione]",4 to 32 µg/mL,< 4 µg/mL,4 to 32 µg/mL,4 to 32 µg/mL,> 32 µg/mL,> 32 µg/mL
"CO[C@]1(C)C[C@@H](C)CN(C)[C@H](C2CN(C(=O)CN(C)C)C2)[C@@H](C)OC(=O)C(C)(C)C(=O)[C@H](C)[C@H]1O[C@@H]1O[C@H](C)C[C@H](N(C)C)[C@H]1O [Compound 120, (2R,3R,6R,8R,9R,10R)-9-(((2S,3R,4S,6R)-4-(dimethylamino)-3-hydroxy-6-methyltetrahydro-2H-pyran-2-yl)oxy)-3-(1-(dimethylglycyl)azetidin-3-yl)-8-methoxy-2,4,6,8,10,12,12-heptamethyl-1-oxa-4-azacyclotridecane-11,13-dione]",> 32 µg/mL,4 to 32 µg/mL,4 to 32 µg/mL,> 32 µg/mL,> 32 µg/mL,> 32 µg/mL
"CO[C@]1(C)C[C@@H](C)CN(C)[C@H]([C@H]2C[C@H](N(C)CC3CC3)C2)COC(=O)C(C)(C)C(=O)[C@H](C)[C@H]1O[C@@H]1O[C@H](C)C[C@H](N(C)C)[C@H]1O [Compound 24, (3R,6R,8R,9R,10R)-3-((1r,3R)-3-((cyclopropylmethyl)(methyl)amino)cyclobutyl)-9-(((2S,3R,4S,6R)-4-(dimethylamino)-3-hydroxy-6-methyltetrahydro-2H-pyran-2-yl)oxy)-8-methoxy-4,6,8,10,12,12-hexamethyl-1-oxa-4-azacyclotridecane-11,13-dione]",4 to 32 µg/mL,< 4 µg/mL,< 4 µg/mL,< 4 µg/mL,> 32 µg/mL,> 32 µg/mL
"CO[C@]1(C)C[C@@H](C)CN(C)[C@H](C2CN(CC3CCCC3)C2)COC(=O)C(C)(C)C(=O)[C@H](C)[C@H]1O[C@@H]1O[C@H](C)C[C@H](N(C)C)[C@H]1O [Compound 103, (3R,6R,8R,9R,10R)-3-(1-(cyclopentylmethyl)azetidin-3-yl)-9-(((2S,3R,4S,6R)-4-(dimethylamino)-3-hydroxy-6-methyltetrahydro-2H-pyran-2-yl)oxy)-8-methoxy-4,6,8,10,12,12-hexamethyl-1-oxa-4-azacyclotridecane-11,13-dione]",4 to 32 µg/mL,< 4 µg/mL,< 4 µg/mL,4 to 32 µg/mL,> 32 µg/mL,4 to 32 µg/mL
"CO[C@]1(C)C[C@@H](C)CN(C)[C@H](C2CN(CC3CC3)C2)COC(=O)C(C)(C)C(=O)[C@H](C)[C@H]1O[C@@H]1O[C@H](C)C[C@H](N(C)C)[C@H]1O [Compound 37, (3R,6R,8R,9R,10R)-3-(1-(cyclopropylmethyl)azetidin-3-yl)-9-(((2S,3R,4S,6R)-4-(dimethylamino)-3-hydroxy-6-methyltetrahydro-2H-pyran-2-yl)oxy)-8-methoxy-4,6,8,10,12,12-hexamethyl-1-oxa-4-azacyclotridecane-11,13-dione]",4 to 32 µg/mL,< 4 µg/mL,< 4 µg/mL,4 to 32 µg/mL,> 32 µg/mL,> 32 µg/mL
"CO[C@]1(C)C[C@@H](C)CN(C)[C@H](C2CN(Cc3ccccn3)C2)COC(=O)C(C)(C)C(=O)[C@H](C)[C@H]1O[C@@H]1O[C@H](C)C[C@H](N(C)C)[C@H]1O [Compound 115, (3R,6R,8R,9R,10R)-9-(((2S,3R,4S,6R)-4-(dimethylamino)-3-hydroxy-6-methyltetrahydro-2H-pyran-2-yl)oxy)-8-methoxy-4,6,8,10,12,12-hexamethyl-3-(1-(pyridin-2-ylmethyl)azetidin-3-yl)-1-oxa-4-azacyclotridecane-11,13-dione]",4 to 32 µg/mL,< 4 µg/mL,4 to 32 µg/mL,4 to 32 µg/mL,> 32 µg/mL,> 32 µg/mL
"COCC(C)N1CCC([C@H]2COC(=O)C(C)(C)C(=O)[C@H](C)[C@@H](O[C@@H]3O[C@H](C)C[C@H](N(C)C)[C@H]3O)[C@](C)(OC)C[C@@H](C)CN2C)CC1 (stereo partly drawn) [Compound 124, (3S,6R,8R,9R,10R)-9-(((2S,3R,4S,6R)-4-(dimethylamino)-3-hydroxy-6-methyltetrahydro-2H-pyran-2-yl)oxy)-8-methoxy-3-(1-(1-methoxypropan-2-yl)piperidin-4-yl)-4,6,8,10,12,12-hexamethyl-1-oxa-4-azacyclotridecane-11,13-dione]",4 to 32 µg/mL,< 4 µg/mL,< 4 µg/mL,4 to 32 µg/mL,> 32 µg/mL,> 32 µg/mL

# Continued, values first:
MIC (S. aureus MP-12),MIC (E. coli MP-4),MIC (K. pneumoniae MP-546),MIC (K. pneumoniae MP-648),MIC (P. aeruginosa MP-3),MIC (A. baumannii MP-15),Compound
> 32 µg/mL,< 4 µg/mL,4 to 32 µg/mL,4 to 32 µg/mL,> 32 µg/mL,> 32 µg/mL,"CO[C@]1(C)C[C@@H](C)CN(C)[C@H]([C@H]2C[C@@H](N(C)C)C2)COC(=O)C(C)(C)C(=O)[C@H](C)[C@H]1O[C@@H]1O[C@H](C)C[C@H](N(C)C)[C@H]1O [Compound 128, (3R,6R,8R,9R,10R)-9-(((2S,3R,4S,6R)-4-(dimethylamino)-3-hydroxy-6-methyltetrahydro-2H-pyran-2-yl)oxy)-3-((1s,3S)-3-(dimethylamino)cyclobutyl)-8-methoxy-4,6,8,10,12,12-hexamethyl-1-oxa-4-azacyclotridecane-11,13-dione]"
> 32 µg/mL,4 to 32 µg/mL,> 32 µg/mL,> 32 µg/mL,> 32 µg/mL,> 32 µg/mL,"CO[C@]1(C)C[C@@H](C)CN(C)[C@H](C2CN(CC3CC3)C2)[C@@H](C)OC(=O)C(C)(C)C(=O)[C@H](C)[C@H]1O[C@@H]1O[C@H](C)C[C@H](N(C)C)[C@H]1O [Compound 146, (2R,3R,6R,8R,9R,10R)-3-(1-(cyclopropylmethyl)azetidin-3-yl)-9-(((2S,3R,4S,6R)-4-(dimethylamino)-3-hydroxy-6-methyltetrahydro-2H-pyran-2-yl)oxy)-8-methoxy-2,4,6,8,10,12,12-heptamethyl-1-oxa-4-azacyclotridecane-11,13-dione]"
4 to 32 µg/mL,< 4 µg/mL,4 to 32 µg/mL,4 to 32 µg/mL,> 32 µg/mL,> 32 µg/mL,"CO[C@]1(C)C[C@@H](C)CN(C)[C@H](C2CN(Cc3cccnc3)C2)COC(=O)C(C)(C)C(=O)[C@H](C)[C@H]1O[C@@H]1O[C@H](C)C[C@H](N(C)C)[C@H]1O [Compound 119, (3R,6R,8R,9R,10R)-9-(((2S,3R,4S,6R)-4-(dimethylamino)-3-hydroxy-6-methyltetrahydro-2H-pyran-2-yl)oxy)-8-methoxy-4,6,8,10,12,12-hexamethyl-3-(1-(pyridin-3-ylmethyl)azetidin-3-yl)-1-oxa-4-azacyclotridecane-11,13-dione]"
4 to 32 µg/mL,< 4 µg/mL,4 to 32 µg/mL,> 32 µg/mL,> 32 µg/mL,> 32 µg/mL,"CO[C@]1(C)C[C@@H](C)CN(C)[C@H](C2CN(C(=O)[C@H]3CCN(C)C3)C2)COC(=O)C(C)(C)C(=O)[C@H](C)[C@H]1O[C@@H]1O[C@H](C)C[C@H](N(C)C)[C@H]1O [Compound 168, (3R,6R,8R,9R,10R)-9-(((2S,3R,4S,6R)-4-(dimethylamino)-3-hydroxy-6-methyltetrahydro-2H-pyran-2-yl)oxy)-8-methoxy-4,6,8,10,12,12-hexamethyl-3-(1-((S)-1-methylpyrrolidine-3-carbonyl)azetidin-3-yl)-1-oxa-4-azacyclotridecane-11,13-dione]"
> 32 µg/mL,< 4 µg/mL,4 to 32 µg/mL,4 to 32 µg/mL,> 32 µg/mL,> 32 µg/mL,"CO[C@]1(C)C[C@@H](C)CN(C)[C@H](C2CN(C(=O)CCCN(C)CC3CCC3)C2)COC(=O)C(C)(C)C(=O)[C@H](C)[C@H]1O[C@@H]1O[C@H](C)C[C@H](N(C)C)[C@H]1O [Compound 156, (3R,6R,8R,9R,10R)-3-(1-(4-((cyclobutylmethyl)(methyl)amino)butanoyl)azetidin-3-yl)-9-(((2S,3R,4S,6R)-4-(dimethylamino)-3-hydroxy-6-methyltetrahydro-2H-pyran-2-yl)oxy)-8-methoxy-4,6,8,10,12,12-hexamethyl-1-oxa-4-azacyclotridecane-11,13-dione]"
4 to 32 µg/mL,< 4 µg/mL,4 to 32 µg/mL,4 to 32 µg/mL,> 32 µg/mL,> 32 µg/mL,"CO[C@]1(C)C[C@@H](C)CN(C)[C@H](C2CN(C(=O)[C@H]3CCN(CC4CC4)C3)C2)COC(=O)C(C)(C)C(=O)[C@H](C)[C@H]1O[C@@H]1O[C@H](C)C[C@H](N(C)C)[C@H]1O [Compound 126, (3R,6R,8R,9R,10R)-3-(1-((S)-1-(cyclopropylmethyl)pyrrolidine-3-carbonyl)azetidin-3-yl)-9-(((2S,3R,4S,6R)-4-(dimethylamino)-3-hydroxy-6-methyltetrahydro-2H-pyran-2-yl)oxy)-8-methoxy-4,6,8,10,12,12-hexamethyl-1-oxa-4-azacyclotridecane-11,13-dione]"
